According to patent US10770169B2, “Method of providing a treatment to a subject based on a dynamic pathway map” (THE REGENTS OF THE UNIVERSITY OF CALIFORNIA, priority 2010, dated 2020):
Where two headings read alike, the source gives them in different places.

Key:
Format in all cases: cell-based, human
[1] = tested on: breast cancer cell lines with aberrant vs normal copy number; experiment: Association of recurrent copy number changes and response (t-test on GI50); settings: FDR p<0.2
Excerpt: We used a t-test to assess the association between recurrent copy number changes (at 8q24 (MYC), 11q13 (CCND1), 20q13 (STK15/AURKA)) and drug sensitivity. We combined into a single group cell lines with low or no amplification and compared them to cell lines with high amplification. […] Cell lines for which the GI50 was equal to the maximum concentration tested were omitted from analysis. We omitted compounds where any group had fewer than five samples.

[2] = tested on: luminal, basal, claudin-low and ERBB2AMP breast cancer cell lines; experiment: Associations of clinically relevant subtypes and response (non-parametric ANOVA or t-test on GI50 ranks)
Method in brief: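 Significance was set at FDR p<0.20 after combining p-values across three test sets. Subtype–response associations came from rank-based non-parametric ANOVA or t-tests on GI50. For three-class comparisons, post-hoc tests of each group against the rest identified the most sensitive group, with FDR correction.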

[3] = tested on: panel of 55 breast cancer cell lines; experiment: Cell growth inhibition assay (Cell Titer Glo, 72 h, 9 doses; GI50, TGI, LC50); settings: Homo sapiens, read-out: GI50 (converted)

With `C/C(=C\c1csc(C)n1)[C@@H]1C[C@@H]2O[C@]2(C)CCC[C@H](C)[C@H](O)[C@@H](C)C(=O)C(C)(C)[C@@H](O)CC(=O)N1` [Ixabepilone] the “association of response with homozygous deletion at 9p21 (CDKN2A)” value [1] was “associated with response”, the “subtype-specific response (sensitivity by transcriptional subtype)” value ([2]; GI50 across subtypes) was “more active against basal and claudin-low cell lines” and the Subtype specificity ([2]; Table 6, most sensitive subtype, FDR p<0.20) was “Basal + Claudin-low”. For the same compound, the GI50 ([3]; 600MPE cell line, censored GI50 values) was 5250 nM, the GI50 ([3]; AU565, AU565 cell line, censored GI50 values) was 4.27 nM and the GI50 ([3]; AU565, cell line AU565) was 4.27 nM. For the same compound, the GI50 ([3]; BT-20, BT20 cell line, censored GI50 values) was 8.13 nM, the GI50 ([3]; BT-20, cell line BT20) was 8.13 nM and the GI50 ([3]; BT-474, BT474 cell line, censored GI50 values) was 8.32 nM. For the same compound, the GI50 ([3]; BT-474, cell line BT474) was 8.32 nM, the GI50 ([3]; BT-483, BT483 cell line, censored GI50 values) was 5370 nM and the GI50 ([3]; BT-483, cell line BT483) was 5370 nM. It also gave a GI50 ([3]; BT-549, BT549 cell line, censored GI50 values) of 6.03 nM, a GI50 ([3]; BT-549, cell line BT549) of 6.03 nM and a GI50 ([3]; CAMA-1, CAMA1 cell line, censored GI50 values) of 1 nM. It also gave a GI50 ([3]; CAMA-1, cell line CAMA1) of 1 nM, a GI50 ([3]; HCC38, HCC38 cell line, censored GI50 values) of 2.82 nM and a GI50 ([3]; HCC38, cell line HCC38) of 2.82 nM. For the same compound, the GI50 ([3]; HCC70, HCC70 cell line, censored GI50 values) was 1.41 nM, the GI50 ([3]; HCC70, cell line HCC70) was 1.41 nM and the GI50 ([3]; HCC202, HCC202 cell line, censored GI50 values) was 20000 nM. The GI50 ([3]; HCC202, cell line HCC202) was 20000 nM, the GI50 ([3]; HCC1143, HCC1143 cell line, censored GI50 values) was 9.77 nM and the GI50 ([3]; HCC1143, cell line HCC1143) was 9.77 nM. The GI50 ([3]; HCC1187, HCC1187 cell line, censored GI50 values) was 2.19 nM, the GI50 ([3]; HCC1187, cell line HCC1187) was 2.19 nM and the GI50 ([3]; HCC1395, HCC1395 cell line, censored GI50 values) was 12 nM. It also gave a GI50 ([3]; HCC1395, cell line HCC1395) of 12 nM, a GI50 ([3]; HCC1419, HCC1419 cell line, censored GI50 values) of 11000 nM and a GI50 ([3]; HCC1419, cell line HCC1419) of 11000 nM. The GI50 ([3]; HCC1428, HCC1428 cell line, censored GI50 values) was 58.9 nM, the GI50 ([3]; HCC1428, cell line HCC1428) was 58.9 nM and the GI50 ([3]; HCC1500, HCC1500 cell line, censored GI50 values) was 3.24 nM. It also gave a GI50 ([3]; HCC1500, cell line HCC1500) of 3.24 nM, a GI50 ([3]; HCC1806, HCC1806 cell line, censored GI50 values) of 4.9 nM and a GI50 ([3]; HCC1806, cell line HCC1806) of 4.9 nM. The GI50 ([3]; HCC1937, HCC1937 cell line, censored GI50 values) was 309 nM, the GI50 ([3]; HCC1937, cell line HCC1937) was 309 nM and the GI50 ([3]; HCC1954, HCC1954 cell line, censored GI50 values) was 1.95 nM. The GI50 ([3]; HCC1954, cell line HCC1954) was 1.95 nM, the GI50 ([3]; HCC2185 cell line, censored GI50 values) was 9120 nM and the GI50 ([3]; HCC3153 cell line, censored GI50 values) was 6.17 nM. For the same compound, the GI50 ([3]; LY2 cell line, censored GI50 values) was 6.03 nM, the GI50 ([3]; MCF7, MCF7 cell line, censored GI50 values) was 0.363 nM and the GI50 ([3]; MCF7, cell line MCF7) was 0.363 nM. The GI50 ([3]; MDA-MB-134-VI, MDAMB134VI cell line, censored GI50 values) was 1.62 nM, the GI50 ([3]; MDA-MB-157, MDAMB157 cell line, censored GI50 values) was 4.9 nM and the GI50 ([3]; MDA-MB-157, cell line MDAMB157) was 4.9 nM. For the same compound, the GI50 ([3]; MDA-MB-231, MDAMB231 cell line, censored GI50 values) was 0.457 nM, the GI50 ([3]; MDA-MB-231, cell line MDAMB231) was 0.457 nM and the GI50 ([3]; MDA-MB-361, MDAMB361 cell line, censored GI50 values) was 2.29 nM. It also gave a GI50 ([3]; MDA-MB-361, cell line MDAMB361) of 2.29 nM, a GI50 ([3]; MDA-MB-415, MDAMB415 cell line, censored GI50 values) of 8.13 nM and a GI50 ([3]; MDA-MB-415, cell line MDAMB415) of 8.13 nM. The GI50 ([3]; MDA-MB-436, MDAMB436 cell line, censored GI50 values) was 5.75 nM, the GI50 ([3]; MDA-MB-436, cell line MDAMB436) was 5.75 nM and the GI50 ([3]; MDA-MB-453, MDAMB453 cell line, censored GI50 values) was 7.76 nM. The GI50 ([3]; MDA-MB-453, cell line MDAMB453) was 7.76 nM, the GI50 ([3]; MDA-MB-468, MDAMB468 cell line, censored GI50 values) was 1.32 nM and the GI50 ([3]; MDA-MB-468, cell line MDAMB468) was 1.32 nM. It also gave a GI50 ([3]; SK-BR-3, SKBR3 cell line, censored GI50 values) of 10.5 nM, a GI50 ([3]; SK-BR-3, cell line SKBR3) of 10.5 nM and a GI50 ([3]; SUM52PE, SUM52PE cell line, censored GI50 values) of 2.95 nM. For the same compound, the GI50 ([3]; SUM52PE, cell line SUM52PE) was 2.95 nM, the GI50 ([3]; SUM149PT, SUM149PT cell line, censored GI50 values) was 5.5 nM and the GI50 ([3]; SUM149PT, cell line SUM149PT) was 5.5 nM. The GI50 ([3]; SUM185PE, SUM185PE cell line, censored GI50 values) was 8.51 nM, the GI50 ([3]; SUM185PE, cell line SUM185PE) was 8.51 nM and the GI50 ([3]; SUM225CWN, SUM225CWN cell line, censored GI50 values) was 20000 nM. It also gave a GI50 ([3]; SUM225CWN, cell line SUM225CWN) of 20000 nM, a GI50 ([3]; SUM1315MO2, SUM1315MO2 cell line, censored GI50 values) of 6.03 nM and a GI50 ([3]; SUM-159-PT, SUM159PT cell line, censored GI50 values) of 6.92 nM. For the same compound, the GI50 ([3]; SUM-159-PT, cell line SUM159PT) was 6.92 nM, the GI50 ([3]; T47D, T47D cell line, censored GI50 values) was 7.94 nM and the GI50 ([3]; T47D, cell line T47D) was 7.94 nM. The GI50 ([3]; UACC-812, UACC812 cell line, censored GI50 values) was 5890 nM, the GI50 ([3]; UACC-812, cell line UACC812) was 5890 nM and the GI50 ([3]; UACC-893, UACC893 cell line, censored GI50 values) was 6.31 nM. For the same compound, the GI50 ([3]; UACC-893, cell line UACC893) was 6.31 nM, the GI50 ([3]; ZR-75-1, ZR751 cell line, censored GI50 values) was 295 nM and the GI50 ([3]; ZR-75-1, cell line ZR751) was 295 nM. The GI50 ([3]; cell line 600MPE) was 5250 nM, the GI50 ([3]; cell line HCC2185) was 9120 nM and the GI50 ([3]; cell line HCC3153) was 6.17 nM. For the same compound, the GI50 ([3]; cell line LY2) was 6.03 nM, the GI50 ([3]; cell line MDAMB134V) was 1.62 nM and the GI50 ([3]; cell line SUM1315MO) was 6.03 nM.
